These results are taken from article PMC5569447 (Iranian Journal of Basic Medical Sciences, 2017).

The test system of the experiment is Mtb strain H37Rv ATCC 27294. Particulars: 24 h.

Peptide text beside a SMILES is read from it.

As for `NC(=O)CC[C@H](NC(=O)[C@@H]1CCCN1C(=O)[C@@H]1CCCN1)C(=O)O` [PPQ] (H-Pro-Pro-Gln-OH), the “MABA MIC” value was over 800 µM.
